Experimental data published in patent US8192962B2, “Processes for detecting toxic substances” (Daikin Industries, Ltd., priority 2001, dated 2012).

Test system: Genes belonging to other category
Test: DNA chip mRNA expression in yeast, genes belonging to other category (Table 9)
Assay type: cell-based, Saccharomyces cerevisiae S288C
In short: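 Whole-genome yeast DNA chip hybridization (65° C., >12 h) of Cy-labeled cDNA from S288C cells exposed 2 h at 25° C. to a sub-lethal toxicant dose in YPD; value is intensity relative to chemical-free control.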

Measured: The level of expressed mRNA in the presence of chemical substance/The level of expressed mRNA in the absence of chemical substance

CCCCCCCCCCCCOS(=O)(=O)[O-].[Na+] [(18), sodium lauryl sulfate]
1.2: yeast gene YJL103C | yeast gene YJR036C | yeast gene YJR058C | yeast gene YKL056C | yeast gene YKL079W | yeast gene YKL171W | yeast gene YLR206W | yeast gene YML130C | yeast gene YMR091C | yeast gene YNL196C | yeast gene YNR006W | yeast gene YOL005C | yeast gene YOL152W | yeast gene YOR133W | yeast gene YOR157C | yeast gene YOR265W | yeast gene YPL001W | yeast gene YPL109C | yeast gene YPL124W | yeast gene YPR066W | yeast gene YPR086W
3.8: yeast gene YOL016C
1.7: yeast gene YJL164C | yeast gene YKL013C | yeast gene YOR036W
2.3: yeast gene YKL193C | yeast gene YNR010W
1.1: yeast gene YJL089W | yeast gene YJR050W | yeast gene YNL333W | yeast gene YNL335W | yeast gene YOR003W | yeast gene YOR185C | yeast gene YOR383C | yeast gene YPL089C | yeast gene YPL220W
1.3: yeast gene YKL007W | yeast gene YKL039W | yeast gene YKL041W | yeast gene YLR362W | yeast gene YMR004W | yeast gene YNL006W | yeast gene YOL164W | yeast gene YPR108W
1.0: yeast gene YJL035C | yeast gene YJL073W | yeast gene YJL210W | yeast gene YKL165C | yeast gene YLR356W | yeast gene YMR094W | yeast gene YNL007C | yeast gene YOR124C
1.8: yeast gene YKL117W
2.5: yeast gene YMR110C
2.2: yeast gene YLR250W
0.6: yeast gene YOR181W
1.4: yeast gene YJR019C | yeast gene YLR136C | yeast gene YMR297W | yeast gene YOL013C
1.6: yeast gene YJR086W | yeast gene YMR112C | yeast gene YMR314W | yeast gene YOR132W | yeast gene YOR288C
3.1: yeast gene YNL093W
0.7: yeast gene YJL116C | yeast gene YKL096W | yeast gene YMR275C | yeast gene YMR276W
0.9: yeast gene YJR047C | yeast gene YJR117W | yeast gene YJR119C | yeast gene YJR123W | yeast gene YJR145C | yeast gene YLR391W | yeast gene YLR429W | yeast gene YMR219W | yeast gene YNR069C | yeast gene YOR117W | yeast gene YOR355W
2.9: yeast gene YLR120C | yeast gene YPL149W
0.4: yeast gene YJR004C
5.3: yeast gene YLR327C
2.0: yeast gene YMR226C | yeast gene YPL154C
3.2: yeast gene YLR093C
1.5: yeast gene YOR198C | yeast gene YOR259C | yeast gene YPR103W
3.6: yeast gene YLR178C
1.9: yeast gene YKL008C | yeast gene YMR104C | yeast gene YNL036W | yeast gene YOR261C
